Reference: patent US8461349B2, “Fungicidal active substance combinations containing trifloxystrobin” (Bayer CropScience AG, priority 2001, dated 2013)
Values joined by “and” are separate entries in the source; they are usually repeats but may differ in a detail not shown here. Identical values can stand only once.

Tests used:
Type in all cases: in vivo
[1] = test system: caterpillars of the diamond back moth (Plutella xylostella, sensitive strain); test: Plutella test (cabbage leaves dipped)
Protocol: (§1) • Solvent: 7 parts by weight of dimethylformamide • Emulsifier: 2 parts by weight of alkylaryl polyglycol ether
(§2) To produce a suitable preparation of active compound, 1 part by weight of active compound is mixed with the stated amounts of solvent and emulsifier, and the concentrate is diluted with emulsifier-containing water to the desired concentration.
Cabbage leaves (Brassica oleracea) are treated by being dipped into the preparation of active compound of the desired concentration and are populated with caterpillars of the diamond back moth (Plutella xylostella, sensitive strain) while the leaves are still moist.
(§3) After the desired period of time, the kill in % is determined. 100% means that all caterpillars have been killed; 0% means that none of the caterpillars have been killed. The kill rates that have been determined are evaluated using Colby's formula.

[2] = test system: caterpillars of the army worm (Spodoptera frugiperda); test: Spodoptera frugiperda test (cabbage leaves dipped)
Protocol: as §1, §2
Cabbage leaves (Brassica oleracea) are treated by being dipped into the preparation of active compound of the desired concentration and are populated with caterpillars of the army worm (Spodoptera frugiperda) while the leaves are still moist.
as §3

[3] = test system: green peach aphid (Myzus persicae); test: Myzus test (cabbage leaves dipped)
Protocol: as §1, §2
Cabbage leaves (Brassica oleracea) which are heavily infested by the green peach aphid (Myzus persicae) are treated by being dipped into the preparation of active compound of the desired concentration.
(§4) After the desired period of time, the kill in % is determined. 100% means that all aphids have been killed; 0% means that none of the aphids have been killed. The kill rates that have been determined are evaluated using Colby's formula.

[4] = test system: cotton aphid (Aphis gossypii); test: Aphis gossypii test (cotton leaves dipped)
Protocol: as §1
To produce a suitable preparation of active compound, 1 part by weight of active compound is mixed with the stated amounts of solvent and emulsifier, and the concentrate is diluted with water to the desired concentrations.
Cotton leaves (Gossypium hirsutum) which are heavily infested by the cotton aphid (Aphis gossypii) are treated by being dipped into the preparation of active compound of the desired concentration.
as §4

[5] = test system: larvae of the mustard beetle (Phaedon cochleariae); test: Phaedon larvae test (cabbage leaves dipped)
Protocol: as §1, §2
Cabbage leaves (Brassica oleracea) are treated by being dipped into the preparation of active compound of the desired concentration and are populated with larvae of the mustard beetle (Phaedon cochleariae) while the leaves are still moist.
After the desired period of time, the kill in % is determined. 100% means that all beetle larvae have been killed; 0% means that none of the beetle larvae have been killed. The kill rates that have been determined are evaluated using Colby's formula.

SMILES | Kill rate in % after 3^d ([2]; 4 ppm) [%] | Kill rate in % after 6^d ([3]; 0.16 ppm) [%] | Kill rate in % after 3^d ([5]; 4 ppm) [%] | Kill rate in % after 6^d ([3]; 0.8 ppm) [%] | Kill rate in % after 6^d ([3]; 4 ppm) [%] | Kill rate in % after 6^d ([4]; 0.8 ppm) [%] | further results
C/C(=N\C#N)N(C)Cc1ccc(Cl)nc1 [acetamiprid (IV)] | 65 | 20 | 5 |  |  |  | Kill rate in % after 3^d ([1]; 4 ppm): 0%; Kill rate in % after 1^d ([4]; 0.16 ppm): 25%
CN/C(=N\[N+](=O)[O-])NCc1cnc(Cl)s1 [chlothianidin (VII)] | 85 |  | 30 | 95 |  |  | 
CN/C(=N\[N+](=O)[O-])NCC1CCOC1 (stereo not shown) [dinotefuran (VIII)] |  |  | 5 |  | 0 | 0 | Kill rate in % after 6^d ([2]; 4 ppm): 70%
O=[N+]([O-])/N=C1\NCCN1Cc1ccc(Cl)nc1 [imidacloprid (II), 1-[(6-chloro-3-pyridinyl)methyl]-N-nitro-2-imidazolidineimine] | 0 | 25 | 35 |  |  |  | Kill rate in % after 6^d ([4]; 0.16 ppm): 25%
N#C/N=C1\SCCN1Cc1ccc(Cl)nc1 [thiacloprid (III)] | 0 |  | 10 | 85 |  | 55 | 
CON=C(C(=O)OC)c1ccccc1CO/N=C(\C)c1cccc(C(F)(F)F)c1 [trifloxystrobin (I), methyl 2-[α-{[(α-methyl-3-trifluoromethylbenzyl)imino]oxy}-o-tolyl]-glyoxylate O-methyl oxime] |  |  |  |  | 0 |  | Kill rate in % after 3^d ([1]; 100 ppm): 0%; Kill rate in % after 3^d ([2]; 100 ppm): 0% and 5%; Kill rate in % after 6^d ([2]; 100 ppm): 0%; Kill rate in % after 6^d ([3]; 20 ppm): 0%; Kill rate in % after 6^d ([3]; 100 ppm): 10%; Kill rate in % after 1^d ([4]; 4 ppm): 0%; Kill rate in % after 6^d ([4]; 4 ppm): 0%; Kill rate in % after 1^d ([4]; 20 ppm): 0%; Kill rate in % after 6^d ([4]; 20 ppm): 0%; Kill rate in % after 3^d ([5]; 100 ppm): 0% and 5%
